Square brackets hold non-standard residues; d marks the D form. Peptide text beside a SMILES is read from it. * marks the point of attachment. Asu = N[C@@H](CCCCCC(=O)O)C(=O)O; NHOH = ON*
What was measured:
Mv1Lu = assay: Inhibition of HDAC in mink Mv1Lu cells expressing human wild-type p21 promoter luciferase fusion plasmid assessed as drug level inducing 10-fold higher luciferase activity by p21 promoter assay relative to baseline; format: cell-based; conditions: Neovison vison
Histone deacetylase 1 = Histone deacetylase 1 (Homo sapiens, UniProt Q13547); assay: Inhibition of human HDAC1 expressed in HEK293T cells assessed as aminomethyl coumarin release using Ac-KGLGK(Ac)-MCA) substrate after 30 mins by FLIPR method; format: cell-based, HEK-293T
[1] = Retention time by HPLC method; format: physicochemical
[2] = target: T1, Protein deacetylase HDAC6 (Mus musculus, UniProt Q9Z2V5); assay: Inhibition of mouse HDAC6 expressed in HEK293T cells assessed as aminomethyl coumarin release using Ac-KGLGK(Ac)-MCA) substrate after 30 mins by FLIPR method; format: cell-based, HEK-293T
T1 sequence (Q9Z2V5 whole entry): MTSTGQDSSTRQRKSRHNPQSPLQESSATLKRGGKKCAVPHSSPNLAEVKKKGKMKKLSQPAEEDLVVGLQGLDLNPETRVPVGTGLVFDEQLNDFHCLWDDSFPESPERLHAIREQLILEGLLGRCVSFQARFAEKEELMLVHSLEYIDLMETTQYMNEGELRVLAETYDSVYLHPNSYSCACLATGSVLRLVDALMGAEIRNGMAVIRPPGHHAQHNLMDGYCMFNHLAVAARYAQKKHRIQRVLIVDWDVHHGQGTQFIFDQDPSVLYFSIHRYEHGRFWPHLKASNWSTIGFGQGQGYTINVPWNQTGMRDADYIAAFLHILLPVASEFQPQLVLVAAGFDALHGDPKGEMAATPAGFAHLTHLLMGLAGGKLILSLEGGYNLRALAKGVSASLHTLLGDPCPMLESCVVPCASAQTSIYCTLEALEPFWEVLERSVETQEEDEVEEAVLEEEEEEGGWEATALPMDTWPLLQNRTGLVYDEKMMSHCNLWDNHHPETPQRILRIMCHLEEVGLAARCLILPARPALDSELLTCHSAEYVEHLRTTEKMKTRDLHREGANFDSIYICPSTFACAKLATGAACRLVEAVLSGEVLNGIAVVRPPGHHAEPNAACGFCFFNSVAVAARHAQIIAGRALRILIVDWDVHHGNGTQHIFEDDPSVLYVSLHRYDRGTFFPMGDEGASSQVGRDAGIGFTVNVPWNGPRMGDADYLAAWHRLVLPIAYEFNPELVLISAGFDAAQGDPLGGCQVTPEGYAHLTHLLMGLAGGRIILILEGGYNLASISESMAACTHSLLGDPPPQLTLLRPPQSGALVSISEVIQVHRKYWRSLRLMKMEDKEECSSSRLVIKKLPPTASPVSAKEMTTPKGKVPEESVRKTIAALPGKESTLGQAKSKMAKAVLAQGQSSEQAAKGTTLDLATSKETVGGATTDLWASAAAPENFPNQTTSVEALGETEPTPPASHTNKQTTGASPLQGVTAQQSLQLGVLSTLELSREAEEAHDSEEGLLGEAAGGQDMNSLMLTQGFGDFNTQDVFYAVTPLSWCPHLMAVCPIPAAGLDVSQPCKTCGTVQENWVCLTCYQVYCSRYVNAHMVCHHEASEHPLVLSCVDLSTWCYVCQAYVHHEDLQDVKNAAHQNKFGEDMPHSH

[3] = Selectivity index, ratio of IC50 for mouse HDAC6 to IC50 for human HDAC1
Histone deacetylase 4 = Histone deacetylase 4 (Homo sapiens, UniProt P56524); assay: Inhibition of human HDAC4 expressed in HEK293T cells assessed as aminomethyl coumarin release using Ac-KGLGK(Ac)-MCA) substrate after 30 mins by FLIPR method; format: cell-based; conditions: hek-293t
Sequence of Histone deacetylase 4 (P56524 whole entry): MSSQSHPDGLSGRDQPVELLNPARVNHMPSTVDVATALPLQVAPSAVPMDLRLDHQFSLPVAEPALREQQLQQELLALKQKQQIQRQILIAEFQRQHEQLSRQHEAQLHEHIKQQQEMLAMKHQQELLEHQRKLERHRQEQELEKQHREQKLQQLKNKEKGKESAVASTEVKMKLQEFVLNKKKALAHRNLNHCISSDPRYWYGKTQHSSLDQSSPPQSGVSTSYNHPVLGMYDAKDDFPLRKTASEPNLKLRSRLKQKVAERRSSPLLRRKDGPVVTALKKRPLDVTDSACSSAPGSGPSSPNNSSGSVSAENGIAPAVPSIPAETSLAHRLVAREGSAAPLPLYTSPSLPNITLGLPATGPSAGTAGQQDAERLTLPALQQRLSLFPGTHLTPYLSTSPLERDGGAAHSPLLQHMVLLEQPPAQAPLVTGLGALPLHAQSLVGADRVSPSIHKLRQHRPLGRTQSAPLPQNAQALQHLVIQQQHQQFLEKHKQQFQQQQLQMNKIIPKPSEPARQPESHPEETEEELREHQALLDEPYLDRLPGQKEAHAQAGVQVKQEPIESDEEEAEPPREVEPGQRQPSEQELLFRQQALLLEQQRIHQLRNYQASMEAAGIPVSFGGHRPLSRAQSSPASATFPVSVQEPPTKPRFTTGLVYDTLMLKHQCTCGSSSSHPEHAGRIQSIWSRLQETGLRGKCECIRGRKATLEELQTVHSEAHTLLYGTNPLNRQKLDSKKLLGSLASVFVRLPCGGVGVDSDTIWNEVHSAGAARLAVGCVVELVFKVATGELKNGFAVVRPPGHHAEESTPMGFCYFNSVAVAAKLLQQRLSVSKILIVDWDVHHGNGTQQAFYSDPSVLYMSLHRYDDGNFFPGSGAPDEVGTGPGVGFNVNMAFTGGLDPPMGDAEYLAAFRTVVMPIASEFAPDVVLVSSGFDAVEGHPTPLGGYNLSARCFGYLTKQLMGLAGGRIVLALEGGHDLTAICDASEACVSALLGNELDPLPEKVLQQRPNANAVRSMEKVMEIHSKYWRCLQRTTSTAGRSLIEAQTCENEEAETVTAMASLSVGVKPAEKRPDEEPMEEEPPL

Sequence of Histone deacetylase 1 (Q13547 whole entry): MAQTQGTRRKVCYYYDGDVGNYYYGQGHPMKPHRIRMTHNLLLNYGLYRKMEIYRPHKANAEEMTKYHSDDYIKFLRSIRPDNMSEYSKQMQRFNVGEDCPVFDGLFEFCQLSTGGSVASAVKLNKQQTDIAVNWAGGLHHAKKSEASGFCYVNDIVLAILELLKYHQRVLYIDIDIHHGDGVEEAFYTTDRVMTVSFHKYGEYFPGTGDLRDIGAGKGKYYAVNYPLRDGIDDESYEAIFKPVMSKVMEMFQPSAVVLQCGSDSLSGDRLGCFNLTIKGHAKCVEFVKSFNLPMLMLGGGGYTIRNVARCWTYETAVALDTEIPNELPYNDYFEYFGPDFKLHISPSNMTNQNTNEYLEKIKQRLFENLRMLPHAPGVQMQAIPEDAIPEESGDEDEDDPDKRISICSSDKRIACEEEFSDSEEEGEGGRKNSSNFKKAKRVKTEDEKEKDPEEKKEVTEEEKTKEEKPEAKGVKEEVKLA

| Compound | IC50 (Histone deacetylase 1) [nM] | Retention_time [1] [min] | IC50 [2] [nM] | Ratio IC50 [3] | IC50 (Histone deacetylase 4) [nM] | EC1000 (Mv1Lu) [nM] |
| --- | --- | --- | --- | --- | --- | --- |
| O=C(CCCCC[C@@H]1NC(=O)[C@H]2CCCN2C(=O)[C@@H]2CCOCCCCOCC[C@@H](NC1=O)C(=O)N2)NO | 31 | 4.31 | 240 | 7.7 | 41 | 2200 |
| O=C(CCCCC[C@@H]1NC(=O)[C@H]2CCCN2C(=O)[C@@H]2CCCCCCCCCC[C@@H](NC1=O)C(=O)N2)NO | – | 6.03 | 410 | 45.1 | – | 7.2 |
| CCCCC[C@@H]1NC(=O)[C@@H](CCCCC)NC(=O)[C@H](CCCCCC(=O)NO)NC(=O)[C@H]2CCCN2C1=O | – | 7.51 | 340 | 13.6 | – | 13 |
| CC[C@H](C)[C@@H]1NC(=O)[C@@H](Cc2ccc(OC)cc2)NC(=O)[C@H](CCCCCC(=O)NO)NC(=O)[C@H]2CCCN2C1=O (cyclo([Asu](NHOH)[dY](Me)I[dP])) | 0.4 | – | 13 | 32.5 | 3 | 22 |

More lines, main results first:

| IC50 (Histone deacetylase 1) [nM] | Retention_time [1] [min] | IC50 [2] [nM] | Ratio IC50 [3] | IC50 (Histone deacetylase 4) [nM] | Compound | EC1000 (Mv1Lu) [nM] |
| --- | --- | --- | --- | --- | --- | --- |
| 25 | 7.06 | 490 | 19.6 | 31 | O=C(CCCCC[C@@H]1NC(=O)[C@H]2CCCCCCCCCC[C@H](NC(=O)[C@H]3CCCN3C1=O)C(=O)N2)NO | 58 |
| 25 | 5.8 | 230 | 9.2 | 26 | O=C(CCCCC[C@@H]1NC(=O)[C@H]2CCCN2C(=O)[C@@H]2CCCCCCCCCC[C@H](NC1=O)C(=O)N2)NO | 510 |
| 37 | 6.55 | 140 | 3.7 | 15 | CCCCC[C@@H]1NC(=O)[C@H](CCCCCC(=O)NO)NC(=O)[C@H]2CCCN2C(=O)[C@H](CCCCC)NC1=O | 80 |
| 43 | 7.67 | 570 | 13.3 | 43 | CCCCC[C@@H]1NC(=O)[C@H]2CCCN2C(=O)[C@H](CCCCCC(=O)NO)NC(=O)[C@@H](CCCCC)NC1=O | 80 |
